Where two headings read alike, the source gives them in different places.
Biological target: Human RNR (human M1 subunit and human M2 subunit) (Homo sapiens (Human), UniProt P23921)
Experiment: Human RNR inhibition effect (formation of dCDP from CDP, HPLC)
Format: biochemical
Details: 10 μM CDP, 37° C. for 30 minutes, read-out: RNR Enzyme inhibitory activity IC50
Description: The inhibitory activity against the ribonucleotide reduction reaction (hereinafter referred to as RNR reaction) of the test compound was determined by measuring the formation of deoxycytidine diphosphate (hereinafter referred to as dCDP) from cytidine diphosphate (hereinafter referred to as CDP) by the following method.
Human M1 subunit and human M2 subunit (mutant lacking amino terminal 59 amino acids), which are fused a histidine tag at the amino terminus, are overexpressed in Escherichia coli and are solubilized after collection, and histidine tagged human M1 and M2 proteins were purified on a nickel chelate column.
First, test compounds were serially diluted with DMSO. Next, human M1 protein and human M2 protein were added to an aqueous albumin solution derived from 0.02% fetal bovine serum, a DMSO solution of the compound of the present invention or the control DMSO solution (final concentration of DMSO was 1%) was added, and the mixture was allowed to stand for 20 minutes. Thereafter, the reaction buffer [50 mM HEPES buffer (pH 7.2) at the final concentration, 4 mM magnesium acetate at the final concentration, 100 mM potassium chloride at the final concentration, 6 mM dithiothreitol at the final concentration, 2 mM adenosine triphosphate at the final concentration, 0.24 mM nicotinamide adenine dinucleotide phosphate at final concentration] and 10 μM CDP at the final concentration were added and incubated at 37° C. for 30 minutes to perform RNR reaction. Immediately after the reaction, the reaction was stopped by heating at 100° C. for 15 minutes, followed by centrifugation at 10,000 rpm for 10 minutes. After the centrifugation, a portion (5 μL) of the resulting supernatant was analyzed with a high performance liquid chromatography (Shimadzu Corporation, Prominence) using Shim-pack XR-ODS (manufactured by Shimadzu GLC Co., 3.0×100 mm).

Human RNR (human M1 subunit and human M2 subunit), sequence (P23921 whole entry): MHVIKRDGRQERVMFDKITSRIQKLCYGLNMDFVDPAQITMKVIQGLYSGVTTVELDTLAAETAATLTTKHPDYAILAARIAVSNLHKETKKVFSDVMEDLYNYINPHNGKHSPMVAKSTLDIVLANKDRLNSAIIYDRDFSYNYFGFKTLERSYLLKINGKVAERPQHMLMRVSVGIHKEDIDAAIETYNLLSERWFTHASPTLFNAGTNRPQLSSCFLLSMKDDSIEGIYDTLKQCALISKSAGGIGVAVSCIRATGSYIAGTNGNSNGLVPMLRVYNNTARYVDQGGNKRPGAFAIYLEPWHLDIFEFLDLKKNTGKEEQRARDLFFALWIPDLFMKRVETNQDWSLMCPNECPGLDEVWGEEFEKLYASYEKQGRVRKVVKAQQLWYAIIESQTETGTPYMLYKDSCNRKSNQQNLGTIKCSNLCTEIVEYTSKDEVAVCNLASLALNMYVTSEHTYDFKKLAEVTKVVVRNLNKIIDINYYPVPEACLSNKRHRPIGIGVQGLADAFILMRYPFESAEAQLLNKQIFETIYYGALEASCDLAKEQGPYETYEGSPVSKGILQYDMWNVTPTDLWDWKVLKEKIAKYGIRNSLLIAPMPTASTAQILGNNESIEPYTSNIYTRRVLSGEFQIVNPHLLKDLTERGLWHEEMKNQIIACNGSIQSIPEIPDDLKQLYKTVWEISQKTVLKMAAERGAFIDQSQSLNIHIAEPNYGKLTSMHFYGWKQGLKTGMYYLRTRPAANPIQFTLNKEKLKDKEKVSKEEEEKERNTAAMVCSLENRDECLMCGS

Row | Structure (SMILES) | IC50 (human M1 and M2 proteins) | IC50 (human M1 and M2 subunits, formation of dCDP from CDP)
1 | Cc1ccc(F)c([C@@H](C)[C@H](NS(=O)(=O)c2ccc(Cl)c3c2OCCC3(O)C(F)(F)F)c2n[nH]c(=O)o2)c1C (single isomer, unassigned) [Example 220A] | 60 nM | 
2 | Cc1ccc(F)c([C@@H](C)[C@H](NS(=O)(=O)c2ccc(F)c3c2OCCC3(C)O)c2n[nH]c(=O)o2)c1C (single isomer, unassigned) [Example 224B] | 100 nM | 
3 | Cc1c(Br)ccc(F)c1[C@@H](C)[C@H](NS(=O)(=O)c1ccc(Cl)c2c1OCCC2(C)O)c1n[nH]c(=O)o1 (single isomer, unassigned) [Example 222A] | 80 nM | 
4 | Cc1c(Br)ccc(F)c1[C@@H](C)[C@H](NS(=O)(=O)c1ccc(F)c2c1OCCC2(C)O)c1n[nH]c(=O)o1 (single isomer, unassigned) [Example 227A] | 50 nM | 
5 | [2H]C([2H])([2H])C1(O)CCOc2c(S(=O)(=O)N[C@H](c3n[nH]c(=O)o3)[C@H](C)c3c(F)ccc(Br)c3C)ccc(Cl)c21 (single isomer, unassigned) [Example 226A] | 50 nM | 
6 | Cc1ccc(F)c([C@@H](C)[C@H](NS(=O)(=O)c2ccc(Cl)c3c2OCCC3(O)C(F)(F)F)c2n[nH]c(=O)o2)c1C (single isomer, unassigned) [Example 220B] | 80 nM | 
7 | [2H]C([2H])([2H])C1(O)CCOc2c(S(=O)(=O)N[C@H](c3n[nH]c(=O)o3)[C@H](C)c3c(F)ccc(Cl)c3C)ccc(Cl)c21 (single isomer, unassigned) [Example 228B] | 140 nM | 
8 | [2H]C([2H])([2H])C1(O)CCOc2c(S(=O)(=O)N[C@H](c3n[nH]c(=O)o3)[C@H](C)c3c(F)ccc(Cl)c3C)ccc(Cl)c21 (single isomer, unassigned) [Example 228A] | 80 nM | 
9 | [2H]C([2H])([2H])C1(O)CCOc2c(S(=O)(=O)N[C@H](c3n[nH]c(=O)o3)[C@H](C)c3c(F)ccc(C)c3C)ccc(Cl)c21 (single isomer, unassigned) [Example 200B] | 80 nM | 
10 | [2H]C([2H])([2H])C1(O)CCOc2c(S(=O)(=O)N[C@H](c3n[nH]c(=O)o3)[C@H](C)c3c(F)ccc(Br)c3C)ccc(Cl)c21 (single isomer, unassigned) [Example 226B] | 70 nM | 
11 | Cc1c(Br)ccc(F)c1[C@@H](C)[C@H](NS(=O)(=O)c1ccc(Cl)c2c1OCCC2(C)O)c1n[nH]c(=O)o1 (single isomer, unassigned) [Example 222B] | 60 nM | 
12 | Cc1c(Cl)ccc(F)c1[C@@H](C)[C@H](NS(=O)(=O)c1ccc(Cl)c2c1OCCC2(C)O)c1n[nH]c(=O)o1 (single isomer, unassigned) [Example 209B] | 180 nM | 
13 | Cc1ccc(F)c([C@@H](C)[C@H](NS(=O)(=O)c2ccc(Cl)c3c2OCCC3(C)O)c2n[nH]c(=O)o2)c1C (single isomer, unassigned) [Example 207B] | 90 nM | 
14 | Cc1c(Br)ccc(F)c1[C@@H](C)[C@H](NS(=O)(=O)c1ccc(F)c2c1OCCC2(C)O)c1n[nH]c(=O)o1 (single isomer, unassigned) [Example 227B] | 90 nM | 
15 | [2H]C([2H])([2H])C1(O)CCOc2c(S(=O)(=O)N[C@H](c3n[nH]c(=O)o3)[C@H](C)c3c(F)ccc(C)c3C)ccc(Cl)c21 (single isomer, unassigned) [Example 200A] | 30 nM | 
16 | C=C(c1c(F)ccc(C)c1C)[C@H](NS(=O)(=O)c1ccc(Cl)cc1OC)c1n[nH]c(=O)o1 [Example 185, (S)-4-chloro-N-(2-(6-fluoro-2,3-dimethylphenyl)-1-(5-oxo-4,5-dihydro-1,3,4-oxadiazol-2-yl)allyl)-2-methoxybenzenesulfonamide] |  | 600 nM
17 | COc1c(S(=O)(=O)N[C@H](c2n[nH]c(=O)o2)[C@H](C)c2c(F)ccc(C)c2C)ccc(Cl)c1C(C)O (single isomer, unassigned) [Example 208A] | 100 nM | 
18 | Cc1c(Cl)ccc(F)c1[C@@H](C)[C@H](NS(=O)(=O)c1ccc(Cl)c2c1OCCC2(C)O)c1n[nH]c(=O)o1 (single isomer, unassigned) [Example 209A] | 100 nM | 
19 | Cc1ccc(F)c([C@@H](C)[C@H](NS(=O)(=O)c2ccc(Cl)c3c2OCCC3(C)O)c2n[nH]c(=O)o2)c1C (single isomer, unassigned) [Example 207A] | 130 nM | 
20 | COc1c(S(=O)(=O)N[C@H](c2n[nH]c(=O)o2)[C@H](C)c2c(F)ccc(C)c2C)ccc(Cl)c1C(C)O (single isomer, unassigned) [Example 208B] | 60 nM | 

Second part, the molecule after the results:

Row | IC50 (human M1 and M2 proteins) | IC50 (human M1 and M2 subunits, formation of dCDP from CDP) | Structure (SMILES)
21 | 460 nM |  | Cc1c(Cl)ccc(F)c1[C@@H](C)[C@H](NS(=O)(=O)c1ccc(Cl)c2c1OCCC2(C)N)c1n[nH]c(=O)o1 (single isomer, unassigned) [Example 330B]
22 | 110 nM |  | Cc1c(Cl)ccc(F)c1[C@@H](C)[C@H](NS(=O)(=O)c1ccc(F)c2c1OCCC2(C)O)c1n[nH]c(=O)o1 (single isomer, unassigned) [Example 229B]
23 | 50 nM |  | Cc1ccc(F)c([C@@H](C)[C@H](NS(=O)(=O)c2ccc(F)c3c2OCCC3O)c2n[nH]c(=O)o2)c1C (single isomer, unassigned) [Example 230B]
24 | 220 nM |  | Cc1ccc(F)c([C@@H](C)[C@H](NS(=O)(=O)c2ccc(C(F)(F)F)c3c2OCCC3O)c2n[nH]c(=O)o2)c1C (single isomer, unassigned) [Example 244B]
25 | 70 nM |  | Cc1c(Br)ccc(F)c1[C@@H](C)[C@H](NS(=O)(=O)c1ccc(Cl)c2c1OCCC2O)c1n[nH]c(=O)o1 (single isomer, unassigned) [Example 243A]
26 | 100 nM |  | Cc1c(Br)ccc(F)c1[C@@H](C)[C@H](NS(=O)(=O)c1ccc(Cl)c2c1OCCC2O)c1n[nH]c(=O)o1 (single isomer, unassigned) [Example 243B]
27 | 200 nM |  | CCc1ccc(F)c([C@@H](C)[C@H](NS(=O)(=O)c2ccc(Cl)c3c2OCCC3O)c2n[nH]c(=O)o2)c1C (single isomer, unassigned) [Example 239A]
28 | 120 nM |  | Cc1ccc(F)c([C@@H](C)[C@H](NS(=O)(=O)c2ccc(F)c3c2OCCC3O)c2n[nH]c(=O)o2)c1C (single isomer, unassigned) [Example 230A]
29 | 120 nM |  | Cc1c(Cl)ccc(F)c1[C@@H](C)[C@H](NS(=O)(=O)c1ccc(Cl)c2c1OCCC2(C)N)c1n[nH]c(=O)o1 (single isomer, unassigned) [Example 330A]
30 | 80 nM |  | Cc1ccc(F)c([C@@H](C)[C@H](NS(=O)(=O)c2ccc(Cl)c3c2OCCC3O)c2n[nH]c(=O)o2)c1C (single isomer, unassigned) [Example 235A]
31 | 90 nM |  | Cc1ccc(F)c([C@@H](C)[C@H](NS(=O)(=O)c2ccc(C(F)(F)F)c3c2OCCC3O)c2n[nH]c(=O)o2)c1C (single isomer, unassigned) [Example 244A]
32 | 310 nM |  | C[C@H](c1c(F)ccc2ccccc12)[C@H](NS(=O)(=O)c1ccc(Cl)c2c1OCCC2O)c1n[nH]c(=O)o1 (single isomer, unassigned) [Example 234A]
33 | 110 nM |  | Cc1c(Cl)ccc(F)c1[C@@H](C)[C@H](NS(=O)(=O)c1ccc(Cl)c2c1OCCC2O)c1n[nH]c(=O)o1 (stereo partly drawn) [Example 238A, 5-chloro-N-((1S,2R)-2-(3-chloro-6-fluoro-2-methylphenyl)-1-(5-oxo-4,5-dihydro-1,3,4-oxadiazol-2-yl)propyl)-4-hydroxychroman-8-sulfonamide]
34 | 60 nM |  | Cc1c(Cl)ccc(F)c1[C@@H](C)[C@H](NS(=O)(=O)c1ccc(F)c2c1OCCC2(C)O)c1n[nH]c(=O)o1 (single isomer, unassigned) [Example 229A]
35 | 70 nM |  | Cc1ccc(F)c([C@@H](C)[C@H](NS(=O)(=O)c2ccc(Cl)c3c2OCCC3O)c2n[nH]c(=O)o2)c1C (single isomer, unassigned) [Example 235B]
36 | 290 nM |  | Cc1ccc(F)c([C@@H](C)[C@H](NS(=O)(=O)c2cccc3c2OC(C)(C)CC3O)c2n[nH]c(=O)o2)c1C (single isomer, unassigned) [Example 237A]

— patent publication US11634395B2, “Sulfonamide compound or salt thereof” (Taiho Pharmaceutical Co., Ltd., priority 2016, dated 2023)
